Measured values taken from patent publication US20180000085A1, “USE OF PICOLINAMIDE COMPOUNDS WITH FUNGICIDAL ACTIVITY” (DOW AGROSCIENCES LLC, priority 2014, published 2018).

Assays:
Zymoseptoria tritici = test: Leaf blotch of wheat (SEPTTR) disease control on wheat seedlings; format: in vivo; design: key to SEPTTR 1DP, HV activity at 100 ppm (% control rating) / SEPTTR 3DC, HV activity at 100 ppm (% control rating) / SEPTTR disease control, 1DP / SEPTTR disease control, 3DC / SEPTTR 1DP disease control rating, HV activity / SEPTTR 3DC disease control rating, HV activity / SEPTTR 3DC, LV activity at 125.1 g/H (% Control rating) / SEPTTR 1DP, LV activity at 125.1 g/H (% Control rating) / SEPTTR 1DP disease control rating, LV activity at 125.1 g/H / SEPTTR 3DC disease control rating, LV activity at 125.1 g/H / SEPTTR 3DC disease control rating, HV activity at 100 ppm / SEPTTR 1DP disease control rating, HV activity at 100 ppm / HV activity at 100 ppm SEPTTR 3DC (disease control rating) / HV activity at 100 ppm SEPTTR 1DP (disease control rating) / LV activity at 125.1 g/H SEPTTR 1DP (disease control rating) / LV activity at 125.1 g/H SEPTTR 3DC (disease control rating): A: > 80; B: ≤ 80; C: Not Tested; D: No Activity Observed in the Reported Assay; details: for SEPTTR 1DP disease control rating, LV activity at 125.1 g/H / SEPTTR 1DP disease control rating, HV activity at 100 ppm: 1 day protectant; for SEPTTR 3DC disease control rating, LV activity at 125.1 g/H / SEPTTR 3DC disease control rating, HV activity at 100 ppm: 3 day curative; for SEPTTR 1DP disease control rating, HV activity / SEPTTR 3DC disease control rating, HV activity: HV application at 100 ppm; for SEPTTR 1DP disease control rating, HV activity at 100 ppm / SEPTTR 3DC disease control rating, HV activity at 100 ppm: high volume application
Puccinia triticina = test: Wheat brown rust (PUCCRT) disease control on wheat seedlings; format: in vivo; design: key to PUCCRT 3DC, HV activity at 100 ppm (% control rating) / PUCCRT disease control, 3DC / PUCCRT 1DP disease control rating, HV activity / PUCCRT 3DC disease control rating, HV activity / PUCCRT 3DC, LV activity at 125.1 g/H (% Control rating) / PUCCRT 1DP, LV activity at 125.1 g/H (% Control rating) / PUCCRT 3DC disease control rating, LV activity at 125.1 g/H / PUCCRT 1DP disease control rating, LV activity at 125.1 g/H / PUCCRT 3DC disease control rating, HV activity at 100 ppm / PUCCRT 1DP disease control rating, HV activity at 100 ppm / HV activity at 100 ppm PUCCRT 3DC (disease control rating) / LV activity at 125.1 g/H PUCCRT 1DP (disease control rating) / LV activity at 125.1 g/H PUCCRT 3DC (disease control rating): A: > 80; B: ≤ 80; C: Not Tested; D: No Activity Observed in the Reported Assay; details: for PUCCRT 1DP disease control rating, LV activity at 125.1 g/H / PUCCRT 1DP disease control rating, HV activity at 100 ppm: 1 day protectant; for PUCCRT 3DC disease control rating, LV activity at 125.1 g/H / PUCCRT 3DC disease control rating, HV activity at 100 ppm: 3 day curative; for PUCCRT 1DP disease control rating, HV activity / PUCCRT 3DC disease control rating, HV activity: HV application at 100 ppm; for PUCCRT 1DP disease control rating, HV activity at 100 ppm / PUCCRT 3DC disease control rating, HV activity at 100 ppm: high volume application
[1] = low volume application, 125.1 g/H
[2] = low volume application, 125.1 g/H, 1 Day Protectant
[3] = low volume application, 125.1 g/H, 3 Day Curative
[4] = 1 Day Protectant, wheat leaf blotch
[5] = 3 Day Curative, wheat leaf blotch
[6] = 1 Day Protectant, wheat brown rust
[7] = 3 Day Curative, wheat brown rust

## CCC(CC)C(Oc1ccc(Cl)cc1Cl)C(C)OC(=O)C(CC(C)C)NC(=O)c1nccc(OC)c1OCOC(C)=O (centres unmarked) [Cmpd 684]
Zymoseptoria tritici; [1]
  SEPTTR 1DP disease control rating, LV activity at 125.1 g/H: D
  SEPTTR 3DC disease control rating, LV activity at 125.1 g/H: D
Puccinia triticina; [1]
  PUCCRT 1DP disease control rating, LV activity at 125.1 g/H: B (≤ 80)
  PUCCRT 3DC disease control rating, LV activity at 125.1 g/H: D

## CCC(CC)[C@@H](OCC1CC1)[C@H](C)OC(=O)[C@H](C)NC(=O)c1nccc(OC)c1OC(C)=O [Cmpd 555]
Zymoseptoria tritici; [2]
  SEPTTR 1DP, LV activity at 125.1 g/H (% Control rating): B (≤ 80)
Zymoseptoria tritici; [3]
  SEPTTR 3DC, LV activity at 125.1 g/H (% Control rating): A (> 80)
Puccinia triticina; [2]
  PUCCRT 1DP, LV activity at 125.1 g/H (% Control rating): A (> 80)
Puccinia triticina; [3]
  PUCCRT 3DC, LV activity at 125.1 g/H (% Control rating): A (> 80)

## C=CC[C@@H](OCC1CC1)[C@H](C)OC(=O)[C@H](C)NC(=O)c1nccc(OC)c1OCOC(C)=O [Cmpd 1076]
Zymoseptoria tritici; low volume application, 125.1 g/H, 1 Day Protectant, wheat leaf blotch
  LV activity at 125.1 g/H SEPTTR 1DP (disease control rating): D
Zymoseptoria tritici; low volume application, 125.1 g/H, 3 Day Curative, wheat leaf blotch
  LV activity at 125.1 g/H SEPTTR 3DC (disease control rating): D
Puccinia triticina; low volume application, 125.1 g/H, 1 Day Protectant, wheat brown rust
  LV activity at 125.1 g/H PUCCRT 1DP (disease control rating): B (≤ 80)
Puccinia triticina; low volume application, 125.1 g/H, 3 Day Curative, wheat brown rust
  LV activity at 125.1 g/H PUCCRT 3DC (disease control rating): B (≤ 80)

## CCC(CC)[C@@H](Oc1ccccc1)[C@H](C)OC(=O)[C@H](C)NC(=O)c1nccc(OC)c1O [Cmpd 306]
Zymoseptoria tritici; [4]
  SEPTTR 1DP disease control rating, HV activity: A (> 80)
Zymoseptoria tritici; [5]
  SEPTTR 3DC disease control rating, HV activity: A (> 80)
Puccinia triticina; [6]
  PUCCRT 1DP disease control rating, HV activity: A (> 80)
Puccinia triticina; [7]
  PUCCRT 3DC disease control rating, HV activity: A (> 80)

## COc1cccc(O[C@@H]([C@H](C)OC(=O)[C@H](C)NC(=O)c2nccc(OC)c2O)C(C)(C)C)c1 [Cmpd 1015]
Zymoseptoria tritici
  SEPTTR 1DP disease control rating, HV activity at 100 ppm: B (≤ 80)
  SEPTTR 3DC disease control rating, HV activity at 100 ppm: B (≤ 80)
Puccinia triticina
  PUCCRT 1DP disease control rating, HV activity at 100 ppm: A (> 80)
  PUCCRT 3DC disease control rating, HV activity at 100 ppm: A (> 80)

## COc1ccnc(C(=O)NC(C)C(=O)OC(C)C(OCC2CC2)C2CCCC2)c1OCOC(C)=O (centres unmarked) [Cmpd 914]
Zymoseptoria tritici; [1]
  SEPTTR 1DP disease control rating, LV activity at 125.1 g/H: B (≤ 80)
  SEPTTR 3DC disease control rating, LV activity at 125.1 g/H: B (≤ 80)
Puccinia triticina; [1]
  PUCCRT 1DP disease control rating, LV activity at 125.1 g/H: A (> 80)
  PUCCRT 3DC disease control rating, LV activity at 125.1 g/H: A (> 80)

## COc1ccnc(C(=O)N[C@@H](Cc2ccccc2)C(=O)O[C@@H](C)[C@H](Oc2cccc(F)c2)c2ccccc2)c1OCOC(C)=O [Cmpd 576]
Zymoseptoria tritici; [2]
  SEPTTR 1DP, LV activity at 125.1 g/H (% Control rating): B (≤ 80)
Zymoseptoria tritici; [3]
  SEPTTR 3DC, LV activity at 125.1 g/H (% Control rating): D
Puccinia triticina; [2]
  PUCCRT 1DP, LV activity at 125.1 g/H (% Control rating): A (> 80)
Puccinia triticina; [3]
  PUCCRT 3DC, LV activity at 125.1 g/H (% Control rating): B (≤ 80)

## COc1ccnc(C(=O)N[C@@H](C)C(=O)O[C@@H](C)COC(=O)C(C)C)c1O [Cmpd 336]
Zymoseptoria tritici; [4]
  SEPTTR 1DP disease control rating, HV activity: B (≤ 80)
Zymoseptoria tritici; [5]
  SEPTTR 3DC disease control rating, HV activity: B (≤ 80)
Puccinia triticina; [6]
  PUCCRT 1DP disease control rating, HV activity: D
Puccinia triticina; [7]
  PUCCRT 3DC disease control rating, HV activity: D

## COc1ccnc(C(=O)N[C@@H](C)C(=O)O[C@@H](C)[C@H](Oc2ccc(C(F)(F)F)cc2)c2ccccc2)c1OC(C)=O [Cmpd 583]
Zymoseptoria tritici; [2]
  SEPTTR 1DP, LV activity at 125.1 g/H (% Control rating): A (> 80)
Zymoseptoria tritici; [3]
  SEPTTR 3DC, LV activity at 125.1 g/H (% Control rating): A (> 80)
Puccinia triticina; [2]
  PUCCRT 1DP, LV activity at 125.1 g/H (% Control rating): A (> 80)
Puccinia triticina; [3]
  PUCCRT 3DC, LV activity at 125.1 g/H (% Control rating): B (≤ 80)

## COc1ccnc(C(=O)NC(C)C(=O)OC(C)C(Oc2ccccc2)c2ccccc2)c1OCOC(C)=O (centres unmarked) [Cmpd 872]
Zymoseptoria tritici; [1]
  SEPTTR 1DP disease control rating, LV activity at 125.1 g/H: A (> 80)
  SEPTTR 3DC disease control rating, LV activity at 125.1 g/H: A (> 80)
Puccinia triticina; [1]
  PUCCRT 1DP disease control rating, LV activity at 125.1 g/H: A (> 80)
  PUCCRT 3DC disease control rating, LV activity at 125.1 g/H: A (> 80)

## C=CC[C@@H](Oc1cc(F)cc(Cl)c1)[C@H](C)OC(=O)[C@H](C)NC(=O)c1nccc(OC)c1O [Cmpd 1022]
Zymoseptoria tritici
  SEPTTR 1DP disease control rating, HV activity at 100 ppm: D
  SEPTTR 3DC disease control rating, HV activity at 100 ppm: B (≤ 80)
Puccinia triticina
  PUCCRT 1DP disease control rating, HV activity at 100 ppm: B (≤ 80)
  PUCCRT 3DC disease control rating, HV activity at 100 ppm: A (> 80)
